Measurements from the CheMixHub ionic liquid set.

Experiment: xn = mol fraction of the nth substance listed

CCCC[n+]1ccn(C)c1.F[B-](F)(F)F + O
Conditions	electrical conductivity [S/m]	viscosity [mPa·s]
288.15 K, 100 kPa, x1 = 5.584e-05	0.0319	–
288.15 K, 100.3 kPa, x1 = 0.0005439	–	1.148
288.15 K, 100.3 kPa, x1 = 0.0009901	–	1.163
288.15 K, 100.3 kPa, x1 = 0.003018	–	1.205
288.15 K, 100.3 kPa, x1 = 0.00501	–	1.247
288.15 K, 100.3 kPa, x1 = 0.006973	–	1.283
288.15 K, 100.3 kPa, x1 = 0.009052	–	1.332
288.15 K, 100.3 kPa, x1 = 0.01199	–	1.394
288.15 K, 100.3 kPa, x1 = 0.01499	–	1.46
288.15 K, 100.3 kPa, x1 = 0.017	–	1.506
293.15 K, 100 kPa, x1 = 0.0003603	–	1.03
293.15 K, 100 kPa, x1 = 0.0003729	–	1.03
293.15 K, 100 kPa, x1 = 0.0007203	–	1.062
293.15 K, 100 kPa, x1 = 0.0007257	–	1.062
293.15 K, 100 kPa, x1 = 0.00108	–	1.093
293.15 K, 100 kPa, x1 = 0.0011	–	1.093
293.15 K, 100.3 kPa, x1 = 0.0005439	–	1.012
293.15 K, 100.3 kPa, x1 = 0.0009901	–	1.024
293.15 K, 100.3 kPa, x1 = 0.003018	–	1.058
293.15 K, 100.3 kPa, x1 = 0.00501	–	1.095
293.15 K, 100.3 kPa, x1 = 0.006973	–	1.126
293.15 K, 100.3 kPa, x1 = 0.009052	–	1.168
293.15 K, 100.3 kPa, x1 = 0.01199	–	1.221
293.15 K, 100.3 kPa, x1 = 0.01499	–	1.277
293.15 K, 100.3 kPa, x1 = 0.017	–	1.315
293.15 K, 101 kPa, x2 = 0.03402	–	115.2
293.15 K, 101 kPa, x2 = 0.06153	–	102.2
293.15 K, 101 kPa, x2 = 0.1014	0.5	–
293.15 K, 101 kPa, x2 = 0.3977	–	26.7
298.15 K, 100 kPa, x1 = 3.988e-05	0.0281	–
298.15 K, 100 kPa, x1 = 0.0003603	–	0.917
298.15 K, 100 kPa, x1 = 0.0003729	–	0.917
298.15 K, 100 kPa, x1 = 0.0007203	–	0.951
298.15 K, 100 kPa, x1 = 0.0007257	–	0.951
298.15 K, 100 kPa, x1 = 0.00108	–	0.983
298.15 K, 100 kPa, x1 = 0.0011	–	0.983
298.15 K, 100 kPa, x2 = 0.9487	–	1.99
298.15 K, 100.3 kPa, x1 = 0.0005439	–	0.8998
298.15 K, 100.3 kPa, x1 = 0.0009901	–	0.9108
298.15 K, 100.3 kPa, x1 = 0.003018	–	0.9406
298.15 K, 100.3 kPa, x1 = 0.00501	–	0.9719
298.15 K, 100.3 kPa, x1 = 0.006973	–	0.9993
298.15 K, 100.3 kPa, x1 = 0.009052	–	1.036
298.15 K, 100.3 kPa, x1 = 0.01199	–	1.081
298.15 K, 100.3 kPa, x1 = 0.01499	–	1.128
298.15 K, 100.3 kPa, x1 = 0.017	–	1.162
298.15 K, 101 kPa, x2 = 0	0.194	116
298.15 K, 101 kPa, x2 = 0.06153	–	79.4
298.15 K, 101 kPa, x2 = 0.1036	0.274	81
298.15 K, 101 kPa, x2 = 0.1135	–	64.3
298.15 K, 101 kPa, x2 = 0.1877	0.374	59.5
298.15 K, 101 kPa, x2 = 0.2879	0.528	42.1
298.15 K, 101 kPa, x2 = 0.3977	–	22.3
298.15 K, 101 kPa, x2 = 0.4094	0.83	28.1
298.15 K, 101 kPa, x2 = 0.4954	1.21	20.8
298.15 K, 101 kPa, x2 = 0.5908	1.65	14.6
298.15 K, 101 kPa, x2 = 0.6979	2.42	9.5
298.15 K, 101 kPa, x2 = 0.7971	3.38	5.92
298.15 K, 101 kPa, x2 = 0.8493	4.79	–
298.15 K, 101 kPa, x2 = 0.8953	4.01	3.2
298.15 K, 101 kPa, x2 = 0.9496	4.83	–
303 K, 100 kPa, x1 = 0.6023	–	18.87
303.15 K, 100 kPa, x1 = 0.0003603	–	0.835
303.15 K, 100 kPa, x1 = 0.0003729	–	0.835
303.15 K, 100 kPa, x1 = 0.0007203	–	0.868
303.15 K, 100 kPa, x1 = 0.0007257	–	0.868
303.15 K, 100 kPa, x1 = 0.00108	–	0.904
303.15 K, 100 kPa, x1 = 0.0011	–	0.904
303.15 K, 100.3 kPa, x1 = 0.0005439	–	0.8079
303.15 K, 100.3 kPa, x1 = 0.0009901	–	0.8166
303.15 K, 100.3 kPa, x1 = 0.003018	–	0.8426
303.15 K, 100.3 kPa, x1 = 0.00501	–	0.87
303.15 K, 100.3 kPa, x1 = 0.006973	–	0.8927
303.15 K, 100.3 kPa, x1 = 0.009052	–	0.9275
303.15 K, 100.3 kPa, x1 = 0.01199	–	0.9648
303.15 K, 100.3 kPa, x1 = 0.01499	–	1.006
303.15 K, 100.3 kPa, x1 = 0.017	–	1.034
303.15 K, 101 kPa, x2 = 0	–	74
303.15 K, 101 kPa, x2 = 0.06153	–	63.1
303.15 K, 101 kPa, x2 = 0.9252	5.82	–
308 K, 100 kPa, x1 = 0.6023	–	16.04
308.15 K, 100 kPa, x1 = 3.988e-05	0.0349	–
308.15 K, 100 kPa, x1 = 5.584e-05	0.0437	–
308.15 K, 100 kPa, x1 = 7.98e-05	0.0658	–
308.15 K, 100 kPa, x1 = 0.0003603	–	0.751
308.15 K, 100 kPa, x1 = 0.0003729	–	0.751
308.15 K, 100 kPa, x1 = 0.0007203	–	0.789
308.15 K, 100 kPa, x1 = 0.0007257	–	0.789
308.15 K, 100 kPa, x1 = 0.00108	–	0.83
308.15 K, 100 kPa, x1 = 0.0011	–	0.83
308.15 K, 100.3 kPa, x1 = 0.0005439	–	0.7296
308.15 K, 100.3 kPa, x1 = 0.0009901	–	0.7358
308.15 K, 100.3 kPa, x1 = 0.00501	–	0.7841
308.15 K, 100.3 kPa, x1 = 0.006973	–	0.8048
308.15 K, 100.3 kPa, x1 = 0.009052	–	0.835
308.15 K, 100.3 kPa, x1 = 0.01199	–	0.8681
308.15 K, 100.3 kPa, x1 = 0.01499	–	0.9047
308.15 K, 100.3 kPa, x1 = 0.017	–	0.9282
308.15 K, 101 kPa, x2 = 0.1002	–	38.1
308.15 K, 101 kPa, x2 = 0.209	–	28.4
308.15 K, 101 kPa, x2 = 0.7002	4.24	–
313 K, 100 kPa, x1 = 0.6023	–	13.87
313.15 K, 100 kPa, x1 = 0.0003603	–	0.693
313.15 K, 100 kPa, x1 = 0.0003729	–	0.693
313.15 K, 100 kPa, x1 = 0.0007203	–	0.736
313.15 K, 100 kPa, x1 = 0.0007257	–	0.736
313.15 K, 100 kPa, x1 = 0.00108	–	0.779
313.15 K, 100 kPa, x1 = 0.0011	–	0.779
313.15 K, 100.3 kPa, x1 = 0.0005439	–	0.6614
313.15 K, 100.3 kPa, x1 = 0.0009901	–	0.6672
313.15 K, 100.3 kPa, x1 = 0.00501	–	0.7105
313.15 K, 100.3 kPa, x1 = 0.006973	–	0.7302
313.15 K, 100.3 kPa, x1 = 0.009052	–	0.7571
313.15 K, 100.3 kPa, x1 = 0.01199	–	0.7861
313.15 K, 100.3 kPa, x1 = 0.01499	–	0.8177
313.15 K, 100.3 kPa, x1 = 0.017	–	0.8403
313.15 K, 101 kPa, x2 = 0	–	46.5
313.15 K, 101 kPa, x2 = 0.1014	0.991	–
313.15 K, 101 kPa, x2 = 0.1135	–	35.01
313.15 K, 101 kPa, x2 = 0.5014	–	9
313.15 K, 101 kPa, x2 = 0.6004	–	7.4
313.15 K, 101 kPa, x2 = 0.8493	6.99	–
313.15 K, 101 kPa, x2 = 0.9744	5.57	–
318.15 K, 100 kPa, x1 = 0.0003603	–	0.638
318.15 K, 100 kPa, x1 = 0.0003729	–	0.638
318.15 K, 100 kPa, x1 = 0.0007203	–	0.681
318.15 K, 100 kPa, x1 = 0.0007257	–	0.681
318.15 K, 100 kPa, x1 = 0.00108	–	0.725
318.15 K, 100 kPa, x1 = 0.0011	–	0.725
318.15 K, 100.3 kPa, x1 = 0.0005439	–	0.6041
318.15 K, 100.3 kPa, x1 = 0.0009901	–	0.6099
318.15 K, 100.3 kPa, x1 = 0.003018	–	0.6311
318.15 K, 100.3 kPa, x1 = 0.00501	–	0.6489
318.15 K, 100.3 kPa, x1 = 0.006973	–	0.6654
318.15 K, 100.3 kPa, x1 = 0.009052	–	0.69
318.15 K, 100.3 kPa, x1 = 0.01199	–	0.7155
318.15 K, 100.3 kPa, x1 = 0.01499	–	0.7441
318.15 K, 100.3 kPa, x1 = 0.017	–	0.7642
318.15 K, 101 kPa, x2 = 0.3058	2	–
318.15 K, 101 kPa, x2 = 0.6004	–	6.4
323.15 K, 101 kPa, x2 = 0.06153	–	29.13
323.15 K, 101 kPa, x2 = 0.209	–	16.7
323.15 K, 101 kPa, x2 = 0.4001	–	8.4
323.15 K, 101 kPa, x2 = 0.8493	7.98	–
323.15 K, 101 kPa, x2 = 0.9496	8.04	–
323.15 K, 101 kPa, x2 = 0.9744	6.74	–
333.15 K, 101 kPa, x2 = 0	–	24.86
333.15 K, 101 kPa, x2 = 0.1135	–	18.67
343.15 K, 101 kPa, x2 = 0.2984	–	6.5
343.15 K, 101 kPa, x2 = 0.6004	–	3.75
343.15 K, 101 kPa, x2 = 0.7	–	2.73
343.15 K, 101 kPa, x2 = 0.8999	–	1.07
353.15 K, 101 kPa, x2 = 0.1002	–	8.6
353.15 K, 101 kPa, x2 = 0.3977	–	5.98
353.15 K, 101 kPa, x2 = 0.6004	–	3.19
363.15 K, 101 kPa, x2 = 0.03402	–	11
363.15 K, 101 kPa, x2 = 0.06153	–	10.4
363.15 K, 101 kPa, x2 = 0.2802	–	6.65
373.15 K, 101 kPa, x2 = 0	–	9.55
373.15 K, 101 kPa, x2 = 0.06153	–	8.6

electrical conductivity [S/m], 101 kPa, frequency 6e-05 MHz
Conditions	293.2 K	298.2 K	303.2 K	308.2 K	313.2 K	318.2 K	323.2 K	333.2 K	343.2 K	353.2 K
x2 = 0.2	0.897	1.026	1.16	1.3	1.45	1.59	1.75	2.1	2.49	2.94
x2 = 0.4	1.401	1.613	1.832	2.04	2.27	2.53	2.78	3.36	3.87	4.56
x2 = 0.6	2.25	2.61	2.95	3.28	3.69	4.13	4.57	5.31	6.27	7.44
x2 = 0.8	3.53	4.1	4.67	5.28	5.9	6.55	7.22	8.54	9.89	11.5
